Results as given in the kinase profiling compilation of Christmann-Franck et al. (2016).

Legend:
Assay in all cases: radiometric filter-binding kinase assay
[1] = target: BRSK1 (human) (UniProt Q8TDC3); settings: compound 10.0 µM
[2] = target: BRSK2 (human) (UniProt Q8IWQ3); settings: compound 10.0 µM
[3] = target: CAMKK2 (human) (UniProt Q96RR4); settings: compound 10.0 µM
[4] = target: DAPK1 (human) (UniProt P53355); settings: compound 10.0 µM
[5] = target: DYRK1A (human) (UniProt Q13627); settings: compound 10.0 µM
[6] = target: EEF2K (human) (UniProt O00418); settings: compound 10.0 µM
[7] = target: EPHB4 (human) (UniProt P54760); settings: compound 10.0 µM
[8] = target: ERBB4 (human) (UniProt Q15303); settings: compound 10.0 µM
[9] = target: FGFR1 (human) (UniProt P11362); settings: compound 10.0 µM
[10] = target: GSK3B (human) (UniProt P49841); settings: compound 10.0 µM
[11] = target: HIPK3 (human) (UniProt Q9H422); settings: compound 10.0 µM
[12] = target: IKBKE (human) (UniProt Q14164); settings: compound 10.0 µM
[13] = target: MAP2K2 (human) (UniProt P36507); settings: compound 10.0 µM
[14] = target: MAP2K6 (human) (UniProt P52564); settings: compound 10.0 µM
[15] = target: MAPK12 (human) (UniProt P53778); settings: compound 10.0 µM
[16] = target: MAPK13 (human) (UniProt O15264); settings: compound 10.0 µM
[17] = target: MAPK3 (human) (UniProt P27361); settings: compound 10.0 µM
[18] = target: MAPK9 (human) (UniProt P45984); settings: compound 10.0 µM
[19] = target: MAPKAPK2 (human) (UniProt P49137); settings: compound 10.0 µM
[20] = target: MAPKAPK5 (human) (UniProt Q8IW41); settings: compound 10.0 µM
[21] = target: MARK1 (human) (UniProt Q9P0L2); settings: compound 10.0 µM
[22] = target: MELK (human) (UniProt Q14680); settings: compound 10.0 µM
[23] = target: MKNK1 (human) (UniProt Q9BUB5); settings: compound 10.0 µM
[24] = target: PAK7 (human) (UniProt Q9P286); settings: compound 10.0 µM
[25] = target: PIM1 (human) (UniProt P11309); settings: compound 10.0 µM
[26] = target: PIM2 (human) (UniProt Q9P1W9); settings: compound 10.0 µM
[27] = target: PIM3 (human) (UniProt Q86V86); settings: compound 10.0 µM
[28] = tested on: PRKAA1 or PRKAA2 (rat); settings: compound 10.0 µM; accession and sequence are those of the human protein
[29] = target: PRKACA (human) (UniProt P17612); settings: compound 10.0 µM
[30] = target: PRKCZ (human) (UniProt Q05513); settings: compound 10.0 µM
[31] = tested on: SGK1 (human), O00141 [S422D]; settings: compound 10.0 µM
[32] = target: STK3 (human) (UniProt Q13188); settings: compound 10.0 µM
[33] = target: SYK (human) (UniProt P43405); settings: compound 10.0 µM
[34] = target: IGF1R (human) (UniProt P08069); settings: compound 10.0 µM
[35] = target: MAP3K5 (human) (UniProt Q99683); settings: compound 10.0 µM
[36] = target: PHKG1 (human) (UniProt Q16816); settings: compound 10.0 µM

Sequence of CAMKK2 (human) (Q96RR4 whole entry, looked up): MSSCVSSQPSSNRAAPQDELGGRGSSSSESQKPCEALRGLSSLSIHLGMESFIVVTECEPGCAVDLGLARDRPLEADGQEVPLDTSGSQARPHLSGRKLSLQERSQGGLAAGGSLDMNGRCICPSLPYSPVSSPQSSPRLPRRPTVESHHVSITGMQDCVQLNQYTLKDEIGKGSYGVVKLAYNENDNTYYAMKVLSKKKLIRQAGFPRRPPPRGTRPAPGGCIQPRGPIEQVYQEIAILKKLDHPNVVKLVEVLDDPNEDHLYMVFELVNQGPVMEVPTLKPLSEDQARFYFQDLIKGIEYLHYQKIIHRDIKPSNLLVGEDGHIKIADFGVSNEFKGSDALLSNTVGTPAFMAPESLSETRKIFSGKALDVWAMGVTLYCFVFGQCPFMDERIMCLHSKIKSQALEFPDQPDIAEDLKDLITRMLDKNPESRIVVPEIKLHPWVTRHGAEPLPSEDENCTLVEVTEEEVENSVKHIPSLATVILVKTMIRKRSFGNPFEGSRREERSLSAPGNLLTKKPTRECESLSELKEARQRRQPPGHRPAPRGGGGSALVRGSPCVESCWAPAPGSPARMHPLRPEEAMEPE
Sequence of STK3 (human) (Q13188 whole entry, looked up): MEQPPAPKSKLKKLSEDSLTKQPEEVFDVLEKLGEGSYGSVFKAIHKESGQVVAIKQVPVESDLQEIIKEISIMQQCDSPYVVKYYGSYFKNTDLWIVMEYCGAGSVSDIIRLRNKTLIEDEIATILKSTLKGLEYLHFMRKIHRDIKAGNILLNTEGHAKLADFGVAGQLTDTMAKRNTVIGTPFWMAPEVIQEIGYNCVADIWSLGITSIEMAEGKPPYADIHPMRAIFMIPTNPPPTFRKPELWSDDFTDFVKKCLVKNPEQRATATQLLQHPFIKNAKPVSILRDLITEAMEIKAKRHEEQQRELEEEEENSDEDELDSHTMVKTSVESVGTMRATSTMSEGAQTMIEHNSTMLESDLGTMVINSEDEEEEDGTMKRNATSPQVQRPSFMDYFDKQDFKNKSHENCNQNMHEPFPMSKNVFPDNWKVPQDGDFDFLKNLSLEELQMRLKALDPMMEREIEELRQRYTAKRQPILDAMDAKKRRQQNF
Sequence of PAK7 (human) (Q9P286 whole entry, looked up): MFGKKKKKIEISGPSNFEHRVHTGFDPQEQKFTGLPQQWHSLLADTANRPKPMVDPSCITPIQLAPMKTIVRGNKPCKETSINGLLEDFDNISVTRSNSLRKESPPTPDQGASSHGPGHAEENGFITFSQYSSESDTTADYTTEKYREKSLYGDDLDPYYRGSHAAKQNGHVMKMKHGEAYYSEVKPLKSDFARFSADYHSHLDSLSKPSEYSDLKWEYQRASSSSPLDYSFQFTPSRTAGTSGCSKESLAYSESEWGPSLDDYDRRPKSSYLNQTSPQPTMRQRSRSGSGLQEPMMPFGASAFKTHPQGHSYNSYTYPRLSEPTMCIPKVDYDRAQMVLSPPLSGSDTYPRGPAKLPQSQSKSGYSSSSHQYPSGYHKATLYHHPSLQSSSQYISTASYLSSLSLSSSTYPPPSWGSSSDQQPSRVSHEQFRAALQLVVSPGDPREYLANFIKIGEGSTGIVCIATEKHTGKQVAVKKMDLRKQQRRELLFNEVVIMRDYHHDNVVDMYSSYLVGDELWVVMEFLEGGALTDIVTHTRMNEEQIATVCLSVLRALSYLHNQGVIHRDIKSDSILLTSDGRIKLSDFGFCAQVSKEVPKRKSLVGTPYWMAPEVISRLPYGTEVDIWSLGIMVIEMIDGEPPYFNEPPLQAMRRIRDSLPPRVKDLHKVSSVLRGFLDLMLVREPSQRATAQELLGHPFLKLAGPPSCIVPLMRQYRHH
Sequence of MAP2K2 (human) (P36507 whole entry, looked up): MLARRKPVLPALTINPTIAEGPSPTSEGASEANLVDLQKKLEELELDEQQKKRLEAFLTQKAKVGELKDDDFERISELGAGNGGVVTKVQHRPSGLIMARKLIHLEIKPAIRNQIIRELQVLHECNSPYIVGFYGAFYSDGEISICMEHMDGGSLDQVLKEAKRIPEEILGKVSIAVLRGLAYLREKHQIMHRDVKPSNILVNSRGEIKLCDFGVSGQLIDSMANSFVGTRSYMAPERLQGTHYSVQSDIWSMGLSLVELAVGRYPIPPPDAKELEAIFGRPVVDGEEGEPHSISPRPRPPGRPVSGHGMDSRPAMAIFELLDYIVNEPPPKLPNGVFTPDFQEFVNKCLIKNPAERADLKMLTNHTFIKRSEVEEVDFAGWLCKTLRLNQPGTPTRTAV
Sequence of HIPK3 (human) (Q9H422 whole entry, looked up): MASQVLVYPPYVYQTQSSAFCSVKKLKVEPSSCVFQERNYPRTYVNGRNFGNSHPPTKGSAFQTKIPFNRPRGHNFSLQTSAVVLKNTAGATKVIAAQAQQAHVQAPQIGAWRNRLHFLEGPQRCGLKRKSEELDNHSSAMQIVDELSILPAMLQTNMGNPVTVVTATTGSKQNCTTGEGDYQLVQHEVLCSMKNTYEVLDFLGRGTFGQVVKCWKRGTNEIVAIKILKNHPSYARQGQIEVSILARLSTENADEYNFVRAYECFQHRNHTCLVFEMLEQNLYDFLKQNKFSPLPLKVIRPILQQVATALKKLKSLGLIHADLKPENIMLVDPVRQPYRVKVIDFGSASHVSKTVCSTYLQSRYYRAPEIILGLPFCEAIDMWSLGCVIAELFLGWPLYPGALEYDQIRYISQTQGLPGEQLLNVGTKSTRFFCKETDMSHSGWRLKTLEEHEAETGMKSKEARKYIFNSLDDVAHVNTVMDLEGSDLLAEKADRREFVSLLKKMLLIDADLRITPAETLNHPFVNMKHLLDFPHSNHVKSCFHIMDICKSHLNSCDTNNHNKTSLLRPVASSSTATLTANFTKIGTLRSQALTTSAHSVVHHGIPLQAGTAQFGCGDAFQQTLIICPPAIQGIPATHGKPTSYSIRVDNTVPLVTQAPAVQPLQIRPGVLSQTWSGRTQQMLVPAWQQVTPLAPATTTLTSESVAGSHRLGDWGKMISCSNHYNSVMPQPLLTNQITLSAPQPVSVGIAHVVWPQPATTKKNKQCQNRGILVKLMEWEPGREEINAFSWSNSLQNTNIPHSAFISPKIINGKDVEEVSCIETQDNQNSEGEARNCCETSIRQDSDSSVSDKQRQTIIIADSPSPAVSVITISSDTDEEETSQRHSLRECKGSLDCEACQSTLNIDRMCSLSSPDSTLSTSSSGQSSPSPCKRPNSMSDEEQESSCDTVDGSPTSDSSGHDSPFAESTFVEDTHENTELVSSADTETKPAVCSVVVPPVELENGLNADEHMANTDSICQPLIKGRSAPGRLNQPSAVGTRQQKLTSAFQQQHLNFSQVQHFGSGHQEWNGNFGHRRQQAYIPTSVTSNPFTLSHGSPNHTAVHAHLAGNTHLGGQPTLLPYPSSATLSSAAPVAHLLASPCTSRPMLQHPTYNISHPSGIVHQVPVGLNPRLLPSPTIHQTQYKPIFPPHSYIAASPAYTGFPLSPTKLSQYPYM
Sequence of MARK1 (human) (Q9P0L2 whole entry, looked up): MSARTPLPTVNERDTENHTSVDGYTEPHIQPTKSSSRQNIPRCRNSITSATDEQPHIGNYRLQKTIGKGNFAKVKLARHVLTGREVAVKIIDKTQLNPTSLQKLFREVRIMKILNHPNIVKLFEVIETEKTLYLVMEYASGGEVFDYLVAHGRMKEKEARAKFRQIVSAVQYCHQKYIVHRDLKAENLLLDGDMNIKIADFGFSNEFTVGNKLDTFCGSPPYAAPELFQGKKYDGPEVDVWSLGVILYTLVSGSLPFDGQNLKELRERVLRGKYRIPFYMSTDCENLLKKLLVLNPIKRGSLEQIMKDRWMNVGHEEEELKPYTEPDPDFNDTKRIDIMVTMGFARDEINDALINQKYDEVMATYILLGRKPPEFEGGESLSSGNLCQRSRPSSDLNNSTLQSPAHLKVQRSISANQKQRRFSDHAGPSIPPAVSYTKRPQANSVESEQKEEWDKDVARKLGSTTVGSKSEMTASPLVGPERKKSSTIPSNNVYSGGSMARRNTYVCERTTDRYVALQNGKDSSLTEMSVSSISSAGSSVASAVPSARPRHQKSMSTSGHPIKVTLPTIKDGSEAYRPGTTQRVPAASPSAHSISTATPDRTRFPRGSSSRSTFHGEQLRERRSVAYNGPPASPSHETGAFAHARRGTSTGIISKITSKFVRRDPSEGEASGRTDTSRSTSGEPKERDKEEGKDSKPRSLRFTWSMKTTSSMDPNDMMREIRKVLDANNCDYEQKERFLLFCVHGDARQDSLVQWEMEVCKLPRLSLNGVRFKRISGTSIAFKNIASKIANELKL
Sequence of BRSK2 (human) (Q8IWQ3 whole entry, looked up): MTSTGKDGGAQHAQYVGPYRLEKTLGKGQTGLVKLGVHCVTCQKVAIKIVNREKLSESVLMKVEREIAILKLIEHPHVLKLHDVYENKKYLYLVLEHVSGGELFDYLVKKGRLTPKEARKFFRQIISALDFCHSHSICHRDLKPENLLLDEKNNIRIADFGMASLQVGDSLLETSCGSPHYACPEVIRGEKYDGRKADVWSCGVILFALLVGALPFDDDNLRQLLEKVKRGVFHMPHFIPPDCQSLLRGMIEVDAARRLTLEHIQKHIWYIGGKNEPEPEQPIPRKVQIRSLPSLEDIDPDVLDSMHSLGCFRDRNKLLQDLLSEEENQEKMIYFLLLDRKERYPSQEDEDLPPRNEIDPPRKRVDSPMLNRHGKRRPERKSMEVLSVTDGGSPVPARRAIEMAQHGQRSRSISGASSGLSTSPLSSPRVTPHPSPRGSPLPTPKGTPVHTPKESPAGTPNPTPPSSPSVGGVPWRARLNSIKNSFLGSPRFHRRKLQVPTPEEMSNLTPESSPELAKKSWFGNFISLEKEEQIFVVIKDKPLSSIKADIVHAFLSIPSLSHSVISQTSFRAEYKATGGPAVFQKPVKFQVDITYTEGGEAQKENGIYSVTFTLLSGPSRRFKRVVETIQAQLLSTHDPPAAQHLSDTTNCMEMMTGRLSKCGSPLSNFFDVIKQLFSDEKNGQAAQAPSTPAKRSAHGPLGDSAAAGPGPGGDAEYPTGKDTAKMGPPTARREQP

| residual activity [1] [%] | residual activity [2] [%] | residual activity [3] [%] | residual activity [5] [%] | residual activity [6] [%] | residual activity [8] [%] | residual activity [9] [%] | residual activity [10] [%] | residual activity [11] [%] | residual activity [13] [%] | residual activity [14] [%] | residual activity [15] [%] | residual activity [16] [%] | residual activity [17] [%] | residual activity [18] [%] | residual activity [19] [%] | residual activity [20] [%] | residual activity [21] [%] | residual activity [22] [%] | residual activity [23] [%] | Compound | other results |
| --- | --- | --- | --- | --- | --- | --- | --- | --- | --- | --- | --- | --- | --- | --- | --- | --- | --- | --- | --- | --- | --- |
| 86 | 42 | 125 | 70 | 97 | 91 | 69 | 106 | 103 | 9 | 87 | 112 | 106 | 103 | 93 | 78 | 97 | 62 | 82 | 110 | CCOC(=O)c1ccc(N2NC(=O)/C(=C/c3ccc([N+](=O)[O-])o3)C2=O)cc1 | residual activity [4]: 112%; residual activity [7]: 89%; residual activity [12]: 156%; residual activity [24]: 118%; residual activity [25]: 109%; residual activity [26]: 107%; residual activity [27]: 92%; residual activity [28]: 108%; residual activity [29]: 95%; residual activity [30]: 112%; residual activity [31]: 126%; residual activity [32]: 122%; residual activity [33]: 92% |
| 109 | 108 | 83 | 72 | 79 | 105 | 106 | 85 | 101 | 99 | 95 | 72 | 85 | 86 | 87 | 86 | 85 | 109 | 107 | 70 | O=S(=O)(c1ccc(F)c2nonc12)N1CCN(c2ncc(C(F)(F)F)cc2Cl)CC1 | residual activity [34]: 93%; residual activity [35]: 101%; residual activity [24]: 92%; residual activity [36]: 90%; residual activity [25]: 88%; residual activity [26]: 97%; residual activity [27]: 116%; residual activity [28]: 92%; residual activity [29]: 103%; residual activity [30]: 94%; residual activity [31]: 70%; residual activity [32]: 82%; residual activity [33]: 94% |
